In patent publication US9617212B2, “Isoindolin-1-ones as macrophage migration inhibitory factor (MIF) inhibitors” (Controlled Chemicals, Inc., priority 2013, dated 2017):

Target: T1, Human MIF (MIF tautomerase) (Homo sapiens, UniProt P14174)
T1 construct: purchased ProSpec
T1 sequence (P14174 2-115 limits assumed): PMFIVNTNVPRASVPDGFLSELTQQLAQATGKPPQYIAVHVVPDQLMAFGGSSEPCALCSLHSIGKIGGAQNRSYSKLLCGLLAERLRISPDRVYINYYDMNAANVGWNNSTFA
Assay: MIF Tautomerase Inhibitory Assay with L-Dopachrome Methyl Ester
Format: biochemical
Conditions: IC50, relative potency class, MIF tautomerase inhibition; L-dopachrome methyl ester substrate, pH 7.34, no pre-incubation
Procedure: MIF Tautomerase Inhibitory Assay with L-Dopachrome Methyl Ester
Assay Method (pH 7.34, 0.017-0.033% DMSO, 0.034% EtOH): A fresh stock solution of L-dopachrome methyl ester in MeOH was prepared at 55-65 mM through oxidation of L-3,4-dihydroxyphenylalanine methyl ester hydrochloride with sodium periodate according to the procedure described in WO9729635A1. MeOH was removed from 0.5 mL of the L-dopachrome methyl ester/MeOH solution (55-65 mM) under a stream of argon and the residue taken up in appropriate amount of water to prepare a substrate solution (7-10 mM). Active Human MIF (from ProSpec) ([…]) was dissolved in 675 μL 0.1% bovine serum albumin (BSA) in water, and the resultant MIF solution (1 volume) mixed with 55 volumes of Na2HPO4 buffer (50 mM, pH 7.34) to form a 265 ng/mL MIF working solution. MIF working solution (280 μL) or a no-MIF working solution (prepared by mixing 0.1% BSA (1 volume) with the aforementioned Na2HPO4 buffer (55 volumes)) was transferred to wells in a column of 8 wells on a 96-well plate in a Plate Reader (SPECTRAmax Plus 384, Molecular Devices), and 5 μL of H2O/DMSO (99/1) containing no inhibitor or an inhibitor (whose concentration was verified by HPLC). Without pre-mixing or pre-incubation, 10 μL freshly prepared L-dopachrome methyl ester/H2O solution (7-10 mM) was added to each well with a multi-pipet. The assay samples were mixed immediately by sucking up and expelling the contents of the wells three times with a multi-pipet. The absorbance (A1) at 475 nm was then recorded for each sample every 2 s for 3 min. After 5-6 min, the samples were monitored again for 3 min with a reading every two seconds at 475 nm (A2). It can be shown that when [substrate]<<Km, plots of Ln(A1−A2) versus time are linear with slopes m (Eq 1). IC50 values were estimated from Eq 2-5, the inhibitor concentration [I] in the assay mixture and values of m in the presence (mi), absence (mo) of the inhibitor, the value of m observed for the non-MIF blank (mn), the MIF concentration (e), and the specificity constant for the MIF catalyzed reaction (kcat/Km). Ln(A1−A2)=−mt (Eq 1) F=(mi−mn)/(mo−mn) (Eq 2) Wherein mo−mn=ekcat/Km (Eq 3) and mi−mn=(ekcat/Km)[…] (Eq 4) IC50=[I]F/(1−F) (Eq 5)
The compounds listed in Table 1, provided herein, were prepared via procedures identical or similar to those described in the Examples 1-85. The listed compounds were >95% pure by HPLC. Each listed compound yielded a mass spectrum consistent with its structure. Concentrations of MIF tautomerase inhibitors used in the assay were verified by HPLC and the extinction coefficients of the inhibitors. The designated relative potency of MIF tautomerase inhibitors is based on the IC50 as determined by the method described in Biochemical Assay as follows: A, IC50<1 μM; B, 1 μM≦IC50<5 μM; C, 5 μM≦IC50<10 μM; D, 10 μM≦IC50<50 μM; E, 50 μM≦IC50<200 μM.

Row | Compound | IC50
1 | CC(OC(=O)Cc1ccccc1)[C@H]1CC[C@H](CN2Cc3cc(F)c(O)cc3C2=O)CC1 (stereo partly drawn) | < 1 µM

Same assay, conditions: relative potency class, MIF tautomerase inhibition; L-dopachrome methyl ester substrate, pH 7.34, no pre-incubation; read-out: IC50

Row | Compound | IC50
2 | COc1cccc(OC(CCC2CCCCC2)[C@H]2CC[C@H](CN3Cc4ccc(O)cc4C3=O)CC2)c1 (stereo partly drawn) | 1 to 5 µM
3 | COC(=O)[C@H](NC(C)[C@H]1CC[C@H](CN2Cc3ccc(O)c(F)c3C2=O)CC1)C(C)C (single isomer, unassigned) | < 1 µM
4 | O=C1c2cc(O)ccc2CN1[C@H]1CC[C@H](O)CC1 | 10 to 50 µM
5 | CC(O)[C@H]1CC[C@H](CN2Cc3ccc(O)cc3C2=O)CC1 (stereo partly drawn) | < 1 µM
6 | CC(=O)NC(C)[C@H]1CC[C@H](CN2Cc3ccc(O)c(F)c3C2=O)CC1 (stereo partly drawn) | < 1 µM
7 | O=C1c2cc(O)ccc2CN1C[C@H]1CC[C@H](COC2CCCCC2)CC1 | 1 to 5 µM
8 | CCCNC(C)[C@H]1CC[C@H](CN2Cc3ccc(O)cc3C2=O)CC1 (stereo partly drawn) | 1 to 5 µM
9 | CC(N)[C@H]1CC[C@H](CN2Cc3ccc(O)cc3C2=O)CC1 (stereo partly drawn) | 1 to 5 µM
10 | CNC(=O)[C@H](Cc1ccccc1)NC(C)C1CCC(CN2Cc3ccc(O)c(F)c3C2=O)CC1 (stereo partly drawn) [drawing 99] | < 1 µM
11 | CCCC(Oc1cccc(F)c1)[C@H]1CC[C@H](CN2Cc3ccc(O)cc3C2=O)CC1 (stereo partly drawn) | < 1 µM
12 | COC(=O)[C@@H](C)NC(C)C1CCC(CN2Cc3ccc(O)c(F)c3C2=O)CC1 (stereo partly drawn) [drawing 113] | < 1 µM
13 | CC(Oc1cccc(OCCN)c1)[C@H]1CC[C@H](CN2Cc3ccc(O)c(F)c3C2=O)CC1 (stereo partly drawn) | < 1 µM
14 | O=C(OC1CCCCC1)c1ccc(CCN2Cc3ccc(O)cc3C2=O)cc1 | 1 to 5 µM
15 | CC(N[C@H](C)C(=O)O)[C@H]1CC[C@H](CN2Cc3ccc(O)c(F)c3C2=O)CC1 (single isomer, unassigned) | < 1 µM
16 | CC(NCCO)C1CCC(CN2Cc3ccc(O)c(F)c3C2=O)CC1 (stereo not drawn) | < 1 µM
17 | O=C1c2cc(O)ccc2CN1C[C@H]1CC[C@H](COc2cc(O)cc(F)c2)CC1 | 1 to 5 µM
18 | CCOC(=O)CN1Cc2ccc(O)cc2C1=O | 50 to 200 µM
19 | O=C1c2cc(O)ccc2CN1C[C@H]1CC[C@H](C(=O)N2CCCCC2)CC1 | < 1 µM
20 | CC(Oc1cccc(OCCN2CCOCC2)c1)[C@H]1CC[C@H](CN2Cc3ccc(O)c(F)c3C2=O)CC1 (stereo partly drawn) | < 1 µM
21 | CCC(O)[C@H]1CC[C@H](CN2Cc3ccc(O)c(F)c3C2=O)CC1 (stereo partly drawn) | < 1 µM
22 | CC(N)[C@H]1CC[C@H](CN2Cc3cc(F)c(O)c(F)c3C2=O)CC1 (stereo partly drawn) | 1 to 5 µM
23 | CC(=O)N[C@@H](COc1cccc(OC[C@H]2CC[C@H](CN3Cc4ccc(O)c(F)c4C3=O)CC2)c1)C(=O)O | < 1 µM
24 | CC(N[C@H](CO)C(=O)O)[C@H]1CC[C@H](CN2Cc3ccc(O)c(F)c3C2=O)CC1 (single isomer, unassigned) | < 1 µM

Row | Compound | IC50
25 | O=C1c2cc(O)ccc2CN1C[C@H]1CC[C@H](C(O)CC2CCCCC2)CC1 (stereo partly drawn) | < 1 µM
26 | CC(N[C@H](C)C(=O)O)C1CCC(CN2Cc3ccc(O)c(F)c3C2=O)CC1 (stereo partly drawn) | < 1 µM
27 | CC(CC1CCCCC1)N1Cc2ccc(O)cc2C1=O (stereo not drawn) | 10 to 50 µM
28 | O=C1c2cc(O)ccc2CN1CCc1ccc(F)cc1 | 10 to 50 µM
29 | C[C@@H](O)[C@H]1CC[C@H](CN2Cc3ccc(O)c(F)c3C2=O)CC1 | < 1 µM
30 | CC(N)[C@H]1CC[C@H](CN2Cc3ccc(O)c(F)c3C2=O)CC1 (stereo partly drawn) | < 1 µM
31 | CC(N[C@@H](C(=O)O)C(C)C)C1CCC(CN2Cc3ccc(O)c(F)c3C2=O)CC1 (stereo partly drawn) | < 1 µM
32 | CCC(Oc1cccc(OC(F)(F)F)c1)C1CCC(CN2Cc3ccc(O)c(F)c3C2=O)CC1 (stereo not drawn) | < 1 µM
33 | COc1cc(OC(C)[C@H]2CC[C@H](CN3Cc4ccc(O)c(F)c4C3=O)CC2)ccc1F (stereo partly drawn) | < 1 µM
34 | O=C1c2cc(O)ccc2CN1C[C@H]1CC[C@H](C(O)CCC2CCCCC2)CC1 (stereo partly drawn) | < 1 µM
35 | COC(=O)[C@@H](CO)NC(C)C1CCC(CN2Cc3ccc(O)c(F)c3C2=O)CC1 (stereo partly drawn) | < 1 µM
36 | COC(=O)[C@H]1CC[C@H](CN2Cc3ccc(O)cc3C2=O)CC1 | < 1 µM
37 | CC(Oc1cccc(OC(F)(F)F)c1)[C@H]1CC[C@H](CN2Cc3ccc(O)c(F)c3C2=O)CC1 (stereo partly drawn) | < 1 µM
38 | O=C1OCc2c(OC[C@H]3CC[C@H](CN4Cc5ccc(O)cc5C4=O)CC3)cccc21 | 1 to 5 µM
39 | CNCCOc1cccc(OC[C@H]2CC[C@H](CN3Cc4ccc(O)c(F)c4C3=O)CC2)c1 | < 1 µM
40 | O=C1c2cc(O)ccc2CN1CCc1cccc(F)c1 | 5 to 10 µM
41 | CC(O)[C@H]1CC[C@H](CN2Cc3ccc(O)c(F)c3C2=O)CC1 (stereo partly drawn) | < 1 µM
42 | CC(Oc1cccc(F)c1)[C@H]1CC[C@H](CN2Cc3cc(F)c(O)c(F)c3C2=O)CC1 (stereo partly drawn) | < 1 µM
43 | O=C1c2cc(O)ccc2CN1C[C@H]1CC[C@H](CN2CCOCC2)CC1 | 1 to 5 µM
44 | CCC(C(=O)OC(C)[C@H]1CC[C@H](CN2Cc3cc(F)c(O)cc3C2=O)CC1)c1ccccc1 (stereo partly drawn) | < 1 µM
45 | CC(N[C@@H](C)C(=O)O)[C@H]1CC[C@H](CN2Cc3ccc(O)c(F)c3C2=O)CC1 (single isomer, unassigned) | < 1 µM
46 | CC(C)(N)[C@H]1CC[C@H](CN2Cc3ccc(O)c(F)c3C2=O)CC1 | < 1 µM
47 | O=C1OCc2cc(OC[C@H]3CC[C@H](CN4Cc5ccc(O)cc5C4=O)CC3)ccc21 | 1 to 5 µM

Row | Compound | IC50
48 | O=C1c2cc(O)ccc2CN1Cc1ccccc1 | 10 to 50 µM
49 | O=C1c2cc(O)ccc2CN1C[C@H]1CC[C@H](C(=O)OC2CCCC2)CC1 | 5 to 10 µM
50 | O=C1c2cc(O)ccc2CN1C[C@H]1CC[C@H](COc2ccccc2F)CC1 | < 1 µM
51 | CC(Oc1cccc(F)c1)[C@H]1CC[C@H](CN2Cc3ccc(O)cc3C2=O)CC1 (stereo partly drawn) | < 1 µM
52 | O=C1c2cc(O)ccc2CN1CCc1ccccc1 | 5 to 10 µM
53 | CN(C)C(=O)[C@H]1CC[C@H](CN2Cc3ccc(O)cc3C2=O)CC1 | 1 to 5 µM
54 | CC(C)CNC(C)[C@H]1CC[C@H](CN2Cc3ccc(O)cc3C2=O)CC1 (stereo partly drawn) | 1 to 5 µM
55 | CCOC(CCC1CCCCC1)[C@H]1CC[C@H](CN2Cc3ccc(O)cc3C2=O)CC1 (stereo partly drawn) | < 1 µM
56 | O=C1c2cc(O)ccc2CN1C[C@H]1CC[C@H](C(=O)OC2CCCCCC2)CC1 | 5 to 10 µM
57 | CCC(C)OC(=O)[C@H]1CC[C@H](CN2Cc3ccc(O)cc3C2=O)CC1 (stereo partly drawn) | 1 to 5 µM
58 | O=C1c2cc(O)ccc2CN1C1CCCCCC1 | 5 to 10 µM
59 | COc1cccc(OC(C)[C@H]2CC[C@H](CN3Cc4ccc(O)c(F)c4C3=O)CC2)c1 (stereo partly drawn) | < 1 µM
60 | O=C1c2c(ccc(O)c2F)CN1C[C@H]1CC[C@H](CO)CC1 | < 1 µM
61 | CC(NCCC(=O)O)C1CCC(CN2Cc3ccc(O)c(F)c3C2=O)CC1 (stereo not drawn) | < 1 µM
62 | CC(C)OC(=O)[C@H]1CC[C@H](CN2Cc3ccc(O)cc3C2=O)CC1 | < 1 µM
63 | COC(=O)CCN1Cc2ccc(O)cc2C1=O | 5 to 10 µM
64 | CC(OC(=O)CCC(=O)O)[C@H]1CC[C@H](CN2Cc3ccc(O)c(F)c3C2=O)CC1 (stereo partly drawn) | < 1 µM
65 | CC[C@@H](C(=O)OC(C)[C@H]1CC[C@H](CN2Cc3ccc(O)c(F)c3C2=O)CC1)c1ccccc1 (stereo partly drawn) | < 1 µM
66 | O=C1c2cc(O)ccc2CN1C[C@H]1CC[C@H](COc2ccc(F)cc2)CC1 | < 1 µM
67 | CCC(Oc1cccc(F)c1)[C@H]1CC[C@H](CN2Cc3ccc(O)cc3C2=O)CC1 (stereo partly drawn) | < 1 µM
68 | COC(=O)CCNC(C)C1CCC(CN2Cc3ccc(O)c(F)c3C2=O)CC1 (stereo not drawn) | < 1 µM
69 | CC(C)(O)[C@H]1CC[C@H](CN2Cc3ccc(O)c(F)c3C2=O)CC1 | < 1 µM
